From patent publication US8658638B2, “Mineralocorticoid receptor antagonist and methods of use” (priority 2009, dated 2014) come the findings set out here.

Test [1] concerns the target T1, human AR (androgen receptor) (Homo sapiens, UniProt P10275).
T1 construct: expressed in transfected cells; host or cells: HEK293 (293-AR lysate)
T1 sequence (P10275 1-920): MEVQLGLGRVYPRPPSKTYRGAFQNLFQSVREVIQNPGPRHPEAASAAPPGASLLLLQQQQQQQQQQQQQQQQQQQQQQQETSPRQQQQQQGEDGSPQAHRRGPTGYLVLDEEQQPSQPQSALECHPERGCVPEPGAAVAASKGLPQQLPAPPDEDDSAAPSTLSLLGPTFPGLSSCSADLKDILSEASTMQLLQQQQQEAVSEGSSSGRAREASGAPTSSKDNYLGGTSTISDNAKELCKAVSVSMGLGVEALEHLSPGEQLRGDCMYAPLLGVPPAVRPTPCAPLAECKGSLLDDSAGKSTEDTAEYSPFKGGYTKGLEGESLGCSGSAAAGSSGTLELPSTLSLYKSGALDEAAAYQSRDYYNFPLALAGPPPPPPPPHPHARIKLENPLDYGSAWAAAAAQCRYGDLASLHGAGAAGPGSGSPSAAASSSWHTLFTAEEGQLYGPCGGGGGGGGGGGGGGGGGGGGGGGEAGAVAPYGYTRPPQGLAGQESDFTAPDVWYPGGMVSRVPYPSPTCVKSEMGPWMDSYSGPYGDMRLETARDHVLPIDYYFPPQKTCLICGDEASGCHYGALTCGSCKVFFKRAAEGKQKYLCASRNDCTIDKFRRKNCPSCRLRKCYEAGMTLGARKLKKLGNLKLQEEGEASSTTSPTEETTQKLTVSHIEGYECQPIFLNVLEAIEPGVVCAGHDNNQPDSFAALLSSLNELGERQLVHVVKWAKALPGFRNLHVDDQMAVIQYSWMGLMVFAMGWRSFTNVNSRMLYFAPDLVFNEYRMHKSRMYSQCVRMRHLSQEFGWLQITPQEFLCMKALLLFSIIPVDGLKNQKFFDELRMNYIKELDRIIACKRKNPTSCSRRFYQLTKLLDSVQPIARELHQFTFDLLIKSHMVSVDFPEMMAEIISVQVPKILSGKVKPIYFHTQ
Kind of test: Steroid nuclear hormone receptor binding assay, AR. The settings on record: [3H]-methyltrienolone, HEK293 lysate overexpressing human AR. On the procedure:
Cell lysates from human embryonic kidney HEK293 cells overexpressing human MR (mineralocorticoid receptor), GR (glucocorticoid receptor), AR (androgen receptor), or PR (progesterone receptor) are used for receptor-ligand competition binding assays to determine Ki values.
Briefly, steroid receptor competition binding assays are run in a buffer containing 20 mM HEPES buffer (pH=7.6), 0.2 mM EDTA, 75 mM NaCl, 1.5 mM MgCl2, 20% glycerol, 20 mM sodium molybdate, 0.2 mM DTT (dithiothreitol), 20 μg/mL aprotinin and 20 μg/mL leupeptin (assay buffer). Typically, steroid receptor binding assays include radio-labeled ligands, such as 0.25 nM [^3H]-aldosterone for MR binding, 0.7 nM [^3H]-dexamethasone for GR binding, 0.36 nM [^3H]-methyltrienolone for AR binding, and 0.29 nM [^3H]-methyltrienolone for PR binding, and either 20 μg 293-MR lysate, 20 μg 293-GR lysate, 22 μg 293-AR lysate, or 40 μg 293-PR lysate per well. Assays are typically run in 96-well format. Competing test compounds are added at various concentrations ranging from about 0.01 nM to 10 μM. Non-specific binding is determined in the presence of 500 nM aldosterone for MR binding, 500 nM dexamethasone for GR binding, or 500 nM methyltrienolone for AR and PR binding. […] After an incubation of 2 hours, plates are read in a Wallac Microbeta counter. […]

Test [2] relates to uni-nephrectomized Sprague Dawley rats. Kind of test: In vivo model of aldosterone mediated hypertension. The settings on record: orally once daily 1-30 mg/kg/day x 14 days, rat. On the procedure: Male uni-nephrectomized Sprague Dawley rats (240-280 g) are housed individually with ad lib house water and rodent 5001 diet for one week. After acclimation, animals are implanted with Alzet pumps to subcutaneously deliver 0.25 μg/h of aldosterone at 2.5 μl/h for up to 28 days, and maintained on a diet containing 6% NaCl and drinking water containing 0.3% KCl throughout the duration of the study. Radiotelemetry devices are also implanted to monitor arterial blood pressure. For example, signals from each animal are sampled every 10 minutes throughout the study. The mean (±SEM) of all values collected over a twenty four hour period represent the mean daily arterial pressure for each animal.
On the day following pump implantation, test compound in a vehicle comprising 1% medium viscosity sodium carboxy methylcellulose/0.25% polysorbate 80/0.05% Antifoam 1510 ™, or vehicle alone, is then administered by once daily oral gavage (10 mL/kg).

Take `O=c1[nH]c2cc(/C=C3\c4ccccc4COc4cc(F)ccc43)ccc2n1[C@@H]1C[C@@H]2COCCN2C1` [Compound (I), 5-((E)-(3-fluorodibenzo[b,e]oxepin-11(6H)-ylidene)methyl)-1-((7R,8aR)-hexahydro-1H-pyrrolo[2,1-c][1,4]oxazin-7-yl)-1H-benzo[d]imidazol-2(3H)-one]: the Ki (as a rule, a dissociation constant, usually derived from enzyme kinetics or from competition with a known ligand) in test [1] was approximately 1.17 µM. For the same compound, in test [2], the “effect on the hypertensive effects of aldosterone in the presence of salt compared to vehicle” value is reported as “dose dependently reduced the hypertensive effects of aldosterone”.
